The source of these data is paper PMC5587747, “A natural chalcone induces apoptosis in lung cancer cells: 3D-QSAR, docking and an in vivo/vitro assay” (Scientific Reports, 2017).

As usually defined, the pIC50 is −log10 of the IC50, conventionally taken in molar units. Low readings indicate a large IC50, high ones a small IC50.

In data set [1] the test system is H292 cells. Put plainly: MTT cytotoxicity assay, H292 cells. The format is cell-based, human. How it is done: (§1) The cytotoxicities of the tested flavonoids were assayed in ten human lung cancer cell lines (A549, H226, H358, H522, H292, H1944, H460, H1792, SW1573, and Calu-1) using MTT reduction assay. Cisplatin (DDP) was selected as a positive control. Compounds 1–37 were dissolved in DMSO to obtain a clear solution of 1 M, which was diluted to 400 mM, 200 mM, 100 mM, 75 mM, 50 mM, 37.5 mM, 25 mM, 10 mM and 1 mM respectively as stock solutions. The DMSO concentration in the medium was kept below 0.10%. Moreover, the stability of tested compounds in experimental buffer was confirmed at 24 h and 48 h respectively by means of HPLC analysis. Then the human lung cancer cells were placed in 96-well culture plates (5 × 10^4 cells/well) and incubated for 24 h. Then, the cells were pretreated with different concentrations of test samples (gradient concentrations 1.0, 10.0, 25.0, 37.5, 50, 75, 100, 200, 400, 1000 μM for compounds 1–37 and DDP) for 48 h. And cell growth was measured by MTT assays. The cytotoxicities against the lung cancer cells were determined systematically and expressed as IC50 value.
Background: Formazan colour is commonly taken as a measure of viable cells.

Data set [2] relates to H522. In words: MTT cytotoxicity assay, H522 cells. The format is cell-based, human. Particulars: DDP 10 μM. The protocol:
as §1

Data set [3] has as its system H226. Put plainly: MTT cytotoxicity assay, H226 cells. The format is cell-based, human. The following applies: DDP 10 μM. The protocol: as §1
In data set [4] the test system is H358. In words: MTT cytotoxicity assay, H358 cells. Particulars: DDP 10 μM. The data set is classed as cell-based, human. How it is done:
as §1

For data set [5], the system named is A549. In words: MTT cytotoxicity assay, A549 cells. The data set is classed as cell-based, human. The following applies: DDP 10 μM. The protocol: as §1
The test system of data set [6] is Calu-1. Put plainly: MTT cytotoxicity assay, Calu-1 cells. The format is cell-based, human. The following applies: DDP 10 μM. The protocol:
as §1

Data set [7] deals with SW1573. Put plainly: MTT cytotoxicity assay, SW1573 cells. The format is cell-based, human. Particulars: DDP 10 μM. How it is done:
as §1

In data set [8] the test system is H1792. In words: MTT cytotoxicity assay, H1792 cells. The format is cell-based, human. The following applies: DDP 10 μM. How it is done: as §1
Data set [9] has as its system H460. In words: MTT cytotoxicity assay, H460 cells. The data set is classed as cell-based, human. Particulars: DDP 10 μM. The protocol: as §1
For data set [10], the system named is H1944. Put plainly: MTT cytotoxicity assay, H1944 cells. The data set is classed as cell-based, human. The following applies: DDP 10 μM. How it is done: as §1
For data set [11], the system named is S180-bearing mice. In words: In vivo antitumor activity in S180 implanted mice. The following applies: 25 mg/kg oral daily, 12 days. The protocol: The animal experiments were carried out according to the National Institute of Health Guide for the Care and Use of Laboratory Animals. And the use of experimental animals was approved by the Animal Ethics Committee of Shenyang Pharmaceutical University. Male Kunming mice, were housed in separate cages under standard conditions (20–24 °C), relative humidity (55% ± 5%) and a 12 h light/12 h dark cycle, and allowed to acclimatize for 3 days prior to the start of experiment. Cultured S180 cells were harvested and washed with sterilized PBS (pH 7.2) three times and resuspended at a density of 6 × 10^6 cells/ml. Mice received subcutaneous implants of 0.2 mL/mouse on the right flank by means of hypodermic injection. Then the mice were divided randomly into 5 groups, including model, positive control and treatment groups with 10 mice in each group after inoculation for 24 h. […] Both groups received oral administrations via an intubation needle every day. […] The weight of the mice was recorded every day throughout the experiment. Finally, the mice were sacrificed by cervical dislocation just 2 h after the last administration. Then the tumor and spleen tissues were harvested and weighed immediately. After that the in vivo tumor inhibition ratio was calculated as: Inhibition ratio (%) = 100((A−B)/A), in which A represents the average tumor weight of the control group and B is recorded as the tumor weight of the administration group. Then, the spleen index was recorded using the following formula:
Spleen index = the final weight of spleen (mg)/the final average body weight (g) without tumor.

[12] abbreviates: Homo sapiens, NCI-H292, H292 cells, MTT, 48 h, read-out: IC50.
Where [13] appears, read: Homo sapiens, NCI-H292, H292 cells, Table S2, read-out: pIC50 (converted).
[14] abbreviates: Homo sapiens, NCI-H292, H292 cells, MTT, 48 h, Table S2, read-out: IC50.

Read-outs that look alike come from different tables or passages of the source.

For `CC1(C)C=Cc2c(ccc3c2O[C@H](c2ccc4c(c2)OCO4)CC3=O)O1` [Compound 37], the IC50 in [1] (setting [12]) and in data set [1] (setting [13]) was 61.5 µM in each case.
As for `COc1cc(O)cc(-c2coc3cc(O)ccc3c2=O)c1` [Compound 31], the IC50 in [1] (setting [14]) and in data set [1] (setting [13]) was above 1000 µM in each case.
`CC1(C)C=Cc2c(ccc(C(=O)/C=C/c3ccc4c(c3)OCO4)c2O)O1` [Compound 35]: the IC50 in data set [1] (setting [12]) and in [1] (setting [13]) was 61.5 µM each time.
For the compound `O=c1c(-c2ccc(O)cc2)coc2cc(O)cc(O)c12` [Compound 28], the IC50 in [1] (setting [14]) and in data set [1] (setting [13]) was 631 µM in each case.
For the compound `O=c1cc(-c2cccc(O)c2)oc2c1ccc1occc12` [Compound 14, isopongaglabol], the IC50 in data set [1] (setting [14]) and in data set [1] (setting [13]) was 630 µM in each case.
For the compound `O=c1cc(-c2ccccc2)oc2c1c(O)cc1occc12` [Compound 3, kanjone], the IC50 in [1] (setting [14]) and in [1] (setting [13]) was above 1000 µM throughout.
Regarding `COc1ccc(-c2coc3c(O)c(OC)ccc3c2=O)cc1` [Compound 33], the IC50 in [1] (setting [12]) and in [1] (setting [13]) was 216 µM throughout.
`COc1ccc(-c2coc3cc(O)ccc3c2=O)cc1` [Compound 27]: the IC50 in data set [1] (setting [14]) and in data set [1] (setting [13]) was above 1000 µM in each case.
`COc1ccc2c(=O)c(OC)c(-c3ccc(OC)c(OC)c3)oc2c1` [Compound 25]: the IC50 in [1] (setting [14]) and in [1] (setting [13]) was 1000 µM in each case.
As to `N.N.[Cl][Pt][Cl]` [DDP, Cisplatin, reference compound], the “inhibition rate (IR %)” value in data set [1] (H292, DDP 10 μM) was found to be 91.3%; in [2], 69.6%; in data set [3], 87.4%; in data set [4], 81.2%; in data set [5] it was 76.4%; in data set [6], 59.1%. In addition, the “inhibition rate (IR %)” value was 69.4% in data set [7], 44.6% in data set [8], 89.1% in data set [9] and 40.4% in [10].
As for `O=c1c(-c2ccc3c(c2)OCO3)coc2cc(O)ccc12` [Compound 29], the IC50 in [1] (setting [14]) and in data set [1] (setting [13]) was 1000 µM throughout.
As to `COc1c2ccoc2cc2oc(-c3ccc4c(c3)OCO4)cc(=O)c12` [Compound 22], the IC50 in data set [1] (setting [14]) and in [1] (setting [13]) was above 1000 µM throughout.
Regarding `COc1ccc(-c2coc3c(O)c(O)ccc3c2=O)cc1O` [Compound 30], the IC50 in [1] (setting [14]) and in data set [1] (setting [13]) was 501 µM in each case.
As to `COc1cc2c(=O)cc(-c3ccccc3)oc2c2ccoc12` [Compound 9, 6-hydroxy,3-methoxyfuro[8,7:4′′,5′′]flavone], the IC50 in [1] (setting [14]) and in data set [1] (setting [13]) was 975 µM in each case.
Turning to `O=P1(N(CCCl)CCCl)NCCCO1` (stereo not shown) [CTX, Cyclophosphamide, reference compound], in data set [11], the “Body weight/g After experiment” value is on record as 28.09 ± 0.56 g, the “Body weight/g Before experiment” value is recorded as 35.97 ± 0.89 g and the “Inhibitory rate (%)” value is 80.75%. In data set [11] (mean ± SE), this compound returned a Tumor weight/g of 1.55 ± 0.30 g.
For genistein [Compound 21], the IC50 in data set [1] (H292 cells, MTT, 48 h, Table S2, read-out: IC50) was above 1000 µM. The same compound displayed a negative-log IC50 (pIC50) in data set [1] (H292 cells, Table S2) below 3.000.
`COc1ccc(O)cc1-c1oc2c(ccc3occc32)c(=O)c1OC` [Compound 18]: the IC50 in [1] (setting [14]) and in data set [1] (setting [13]) was above 1000 µM throughout.
For the compound `COc1c(-c2ccc3c(c2)OCO3)oc2c3c(ccc2c1=O)OC(C)(C)C=C3` [Compound 12, pongapinnol-C], the IC50 in data set [1] (setting [12]) and in data set [1] (setting [13]) was 100 µM throughout.
Consider `CC1(C)C=Cc2c(ccc3c2O[C@H](c2ccccc2)CC3=O)O1` [Compound 36], for which the IC50 in [1] (setting [12]) and in data set [1] (setting [13]) was 50 µM each time.
In the case of `COc1cccc(-c2cc(=O)c3ccc4occc4c3o2)c1` [Compound 13], the IC50 in data set [1] (setting [14]) and in [1] (setting [13]) was 615 µM throughout.
`COc1c2ccoc2cc2oc(-c3ccccc3)cc(=O)c12` [Compound 20]: the IC50 in [1] (setting [14]) and in data set [1] (setting [13]) was above 1000 µM throughout.
Regarding `O=c1cc(-c2ccc(O)cc2)oc2c1ccc1occc12` [Compound 4], the IC50 in data set [1] (setting [14]) and in data set [1] (setting [13]) was 705 µM in each case.
Consider `COc1c(-c2ccccc2)oc2c(cc(O)c3occc32)c1=O` [Compound 11, demethylate kanjone], for which the IC50 in data set [1] (setting [14]) and in data set [1] (setting [13]) was above 1000 µM each time.
With `COc1ccc(OC)c(-c2cc(=O)c3ccc4occc4c3o2)c1` [Compound 16], the IC50 in [1] (setting [14]) and in data set [1] (setting [13]) was 374 µM in each case.
For the compound `COc1ccc2c(=O)c(OC)c(-c3ccc4c(c3)OCO4)oc2c1` [Compound 24], the IC50 in data set [1] (setting [14]) and in data set [1] (setting [13]) was 394 µM in each case.
With `O=c1cc(-c2ccc3c(c2)OCO3)oc2c1ccc1occc12` [Compound 6], the IC50 in [1] (setting [14]) and in data set [1] (setting [13]) was above 1000 µM throughout.
In the case of `O=c1cc(-c2ccccc2)oc2c1cc(O)c1occc12` [Compound 8], the IC50 in data set [1] (setting [14]) and in data set [1] (setting [13]) was 750 µM in each case.
As for `COc1ccc(-c2coc3cc(CC=C(C)C)ccc3c2=O)cc1` [Compound 26], the IC50 in data set [1] (setting [12]) and in data set [1] (setting [13]) was 294 µM each time.
For `COc1ccc(-c2coc3c(OC)c(O)ccc3c2=O)cc1` [Compound 32], the IC50 in data set [1] (setting [14]) and in [1] (setting [13]) was 776 µM each time.
Turning to `COc1cc(OC)cc(-c2cc(=O)c3ccc4occc4c3o2)c1` [Compound 15], the IC50 in data set [1] (setting [12]) and in data set [1] (setting [13]) was 158 µM in each case.
In the case of `COc1cc(OC)c(Cl)c(-c2cc(=O)c3ccc4occc4c3o2)c1Cl` [Compound 1], the IC50 in data set [1] (setting [14]) and in data set [1] (setting [13]) was 490 µM throughout.
For `COc1c(-c2ccccc2)oc2c(ccc3occc32)c1=O` [Compound 10], the IC50 in [1] (setting [14]) and in data set [1] (setting [13]) was 794 µM throughout.
With `COc1cc(O)cc(-c2oc3c(ccc4occc43)c(=O)c2OC)c1` [Compound 19], the IC50 in data set [1] (setting [14]) and in [1] (setting [13]) was above 1000 µM in each case.
